Experimental data reported in US6900200B2, “Tricyclic hydroxy carboxamides and derivatives thereof tocolytic oxytocin receptor antagonists” (Wyeth, priority 2001, dated 2005).

Biological target: T1, human vasopressin V2 receptor subtype (Homo sapiens, UniProt P30518)
T1 construct: host or cells: CHO cells, pZeoSV vector
Experiment: Vasopressin binding in CHO cell membranes expressing human vasopressin V2 subtype receptors ([3H]arginine vasopressin radioligand binding)
Conditions: @ 100 nM
Text: Vasopressin Binding in Chinese Hamster Ovary Cell Membranes Expressing Human Vasopressin V2 Subtype Receptors
Chinese Hamster Ovary (CHO) cells stably transfected with the human V2 subtype receptors were obtained from M. Thibonnier, Case Western Reserve University School of Medicine, Cleveland, Ohio.
A. Passaging and Amplification of Cells
CHO cells transfected with the human vasopressin V2 subtype receptors obtained from M. Thibonnier (pZeoSV vector) are allowed to grow to confluency (approx. >90%) in T-150 flasks under sterile conditions, in a cell culture medium ofF-12 Nutrient Mixture (HAM) with L-glutamine (Gibco Cat. #11765-054) containing 15 mM HEPES (Gibco Cat. #15630-080), 1% antibiotic/antimycotic (add 5 mL 100×, Gibco Cat. #15240-062 per 500 mL F-12), 250 μg/mL Zeocin (add 1.25 mL of 100 mg/mL Invitrogen R-250-01 per 500 mL F-1 2) and 10% Fetal Bovine Serum (Qualified, heat inactivated, Gibco Cat. #16140-063). The medium is removed by aspiration and the cells washed with 10 mL of Hank's Balanced Salt solution (Gibco Cat. #14175-095). The salt solution is removed by aspiration and the cells trypsinized with 5 mL of trypsin-EDTA (0.05% trypsin, 0.53 mM EDTA-4Na, Gibco Cat. #25300-070) for 1 min. The trypsin is removed by aspiration and the cells dislodged by tapping. Cell Culture medium (e.g. 30 mL for 1:30 split) is immediately added and mixed well to inactivate trypsin. 1 mL of detached cells is added to new culture flasks containing fresh Cell Culture medium (e.g. into 25 mL per T-150 flask), and mixed gently. The cells are incubated at 37° C. in 5% CO2. The medium is changed at 3 to 4 day interval (or as appropriate). The cells grow to confluency (approx. >75%-95%) within 7-8 days. All steps are done under sterile conditions.
The cells are washed twice gently with Hank's Balanced Salt solution (e.g. use 10 mL per T-150 flask). The excess solution is removed and the cells bathed for 15-30 min. in an enzyme-free Cell Dissociation Buffer (e.g. use 8 mL Hank's Based, Gibco Cat. # 13150-016 per T-150 flask) until cells are loosened. The contents are transferred to centrifuge tubes (50 mL) kept in ice bath. All subsequent steps are done at 4° C. The tubes are centrifuged at 300×g for 15 min (1380 rpm on SORVAL, Model RT6000D, using the rotor for 50 mL tubes). The supernatant is discarded and the cells suspended in homogenizing buffer (10 mM Tris-HCl containing 0.25 M sucrose and 1 mM EDTA, pH 7.4) ensuring that the volume of the buffer is about ten times the volume of the cell pellet. The cells are pooled into a centrifuge tube (50 mL) and homogenized with Polytron at setting 6 for 10 sec. The homogenate is transferred into a Potter-Elvjehm homogenizer and homogenized with 3 strokes. The homogenate is centrifuged at 1500×g for 60 min at 4° C. (3100 rpm using SORVAL, model RT6000D, using the rotor for 50 mL tubes). The pellet is discarded. The supernatant is centrifuged at 100,000×g for 60 min. at 4° C. (Beckman L8-80M ultracentrifuge; spin at 37,500 rpm with rotor type 70 Ti for 50 mL tubes; 38,000 rpm with type 80Ti for 15 mL tubes; or 35,800 rpm with rotor type 45Ti). The supernantant is discarded and the pellet suspended in 3 to 4 mL of Tris buffer (50 mM TRIS—HCl, pH 7.4). The protein content is estimated by the Bradford or Lowry method. The volume of the membrane suspension is adjusted with the membrane buffer (50 mM Tris-HCl containing 0.1% BSA and 0.1 mM PMSF) to give 3.0 mg/mL (or as appropriate) of protein. The membranes are aliquoted and stored at −70. ° C.
C. Radioligand Binding Assay
In wells of a 96-well format microtiter plate, is added 90, 110 or 130 μL (to make up a final volume of 200 μL) of assay buffer containing 50 mM of Tris-HCl (pH 7.4), […], 1 mg % aprotinin, 1 mg % leupeptin, 2 mg % 1,10-phenanthroline, 10 mg % trypsin inhibitor, and 0.1 mM PMSF. The inhibitors are added on the day of the experiment. […]

T1 sequence (P30518 whole entry): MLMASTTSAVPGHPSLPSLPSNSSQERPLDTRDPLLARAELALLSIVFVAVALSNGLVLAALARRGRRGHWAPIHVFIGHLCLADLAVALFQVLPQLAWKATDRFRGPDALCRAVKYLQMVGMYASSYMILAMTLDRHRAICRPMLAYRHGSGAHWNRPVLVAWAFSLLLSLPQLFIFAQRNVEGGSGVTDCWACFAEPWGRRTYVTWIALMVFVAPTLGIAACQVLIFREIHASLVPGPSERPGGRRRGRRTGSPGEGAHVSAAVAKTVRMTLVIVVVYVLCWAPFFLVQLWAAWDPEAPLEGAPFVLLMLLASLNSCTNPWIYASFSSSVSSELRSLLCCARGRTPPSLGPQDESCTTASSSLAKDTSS

Going from `COc1cc2c(cc1OC)N(C(=O)c1ccc(-c3ccccc3C(F)(F)F)c(C)c1)Cc1ccc(C(=O)N(CCO)CCO)n1C2` [Example 19, N,N-Bis(2-Hydroxyethyl)-7,8-dimethoxy-10-{[2-methyl-2′-trifluoromethyl-[1,1′-biphenyl]-4-yl]carbonyl}-10,11-dihydro-5H-pyrrolo[2,1-c][1,4]benzodiazepine-3-carboxamide] to `COc1ccccc1-c1ccc(C(=O)N2Cc3ccc(C(=O)N(C)C[C@@H](O)CO)n3Cc3ccccc32)cc1C` (single isomer, unassigned) [Example 16], the inhibition at 0.1 µM rises from 3% to 51%.

First: COc1cccc(-c2ccc(C(=O)N3Cc4ccc(C(=O)N5CCN(CCO)CC5)n4Cc4ccccc43)cc2C)c1 [Example 44, [4-(2-Hydroxyethyl)-1-piperazinyl]{10-[(3′-methoxy-2-methyl[1,1′-biphenyl]-4yl)carbonyl]-10,11-dihydro-5H-pyrrolo[2,1-c][1,4]benzodiazepin-3-yl}methanone]
Second: COc1cccc(-c2ccc(C(=O)N3Cc4ccc(C(=O)N5CCN(CCO)CC5)n4Cc4ccccc43)cc2OC)c1 [Example 50, {10-[(2,3′-Dimethoxy[1,1′-biphenyl]-4-yl)carbonyl]-10,11-dihydro-5H-pyrrolo[2,1-c][1,4]benzodiazepin-3-yl}[4-(2-hydroxyethyl)-1-piperazinyl]methanone]
The inhibition at 0.1 µM of the first is lower: 13% for the first, 16% for the second.

First: O=C(c1ccc2n1Cc1ccccc1N(C(=O)c1ccc(-c3cccc4ccccc34)cc1Cl)C2)N1CCN(CCO)CC1 [Example 25, 2-{4-[10-{[2-Chloro-4-(naphthalen-1-yl)phenyl]carbonyl}-(10,11-dihydro-5H-pyrrolo[2,1-c][1,4]benzodiazepin-3-yl)carbonyl]piperazine-1-yl}-1-hydroxyethane]
Second: COc1ccccc1-c1ccc(C(=O)N2Cc3ccc(C(=O)N4CCN(CCO)CC4)n3Cc3ccccc32)cc1 [Example 47, [4-(2-Hydroxyethyl)-1-piperazinyl]{10-[(2′-methoxy[1,1′-biphenyl]-4-yl)carbonyl]-10,11-dihydro-5H-pyrrolo[2,1-c][1,4]benzodiazepin-3-yl}methanone]
The inhibition at 0.1 µM of the first is higher: 21% for the first, 16% for the second.

First: COc1cccc(-c2cc(OC)c(C(=O)N3Cc4ccc(C(=O)N5CCN(CCO)CC5)n4Cc4ccccc43)cc2Cl)c1 [Example 49, {10-[(6-Chloro-3,3′-dimethoxy[1,1′-biphenyl]-4-yl)carbonyl]-10,11-dihydro-5H-pyrrolo[2,1-c][1,4]benzodiazepin-3-yl}[4-(2-hydroxyethyl)-1-piperazinyl]methanone]
Second: COc1ccccc1-c1ccc(C(=O)N2Cc3ccc(C(=O)N4CCN(CCO)CC4)n3Cc3ccccc32)cc1OC [Example 43, {10-[(2,2′-Dimethoxy[1,1′-biphenyl]-4-yl)carbonyl]-10,11-dihydro-5H-pyrrolo[2,1-c][1,4]benzodiazepin-3-yl}[4-(2-hydroxyethyl)-1-piperazinyl]methanone]
The inhibition at 0.1 µM of the first is lower: 21% for the first, 27% for the second.

Going from `COc1cc(C(=O)N2Cc3ccc(C(=O)N4CCN(CCO)CC4)n3Cc3ccccc32)ccc1-c1ccccc1C` [Example 42, [4-(2-Hydroxyethyl)-1-piperazinyl]{10-[(2-methoxy-2′-methyl[1,1′-biphenyl]-4yl)carbonyl]-10,11-dihydro-5H-pyrrolo[2,1-c][1,4]benzodiazepin-3-yl}methanone] to `Cc1ccccc1-c1ccc(C(=O)N2Cc3ccc(C(=O)N4CCN(CCO)CC4)n3Cc3ccccc32)cc1C` [Example 46, {10-[(2,2′-Dimethyl[1,1′-biphenyl]-4-yl)carbonyl]-10,11-dihydro-5H-pyrrolo[2,1-c][1,4]benzodiazepin-3-yl}[4-(2-hydroxyethyl)-1-piperazinyl]methanone], the inhibition at 0.1 µM falls from 27% to 14%.

Same assay, conditions: value printed in parentheses

Compared with `Cc1cc(C(=O)N2Cc3ccc(C(=O)N(C)CC(O)CO)n3Cc3ccccc32)ccc1-c1ccccc1C(F)(F)F` (stereo not shown) [Example 2, 10-[(2-Methyl-2′-trifluoromethyl-[1,1′-biphenyl]-4-yl)carbonyl]-10,11-dihydro-5H-pyrrolo[2,1-c][1,4]benzodiazepine-3-carboxylic acid (2,3-dihydroxy-propyl)-methyl-amide], `COc1ccccc1-c1ccc(C(=O)N2Cc3ccc(C(=O)N(C)CC(O)CO)n3Cc3ccccc32)cc1C` (stereo not shown) [Example 14, 10-[(2′-Methoxy-2-methyl-[1,1′-biphenyl]-4-yl)carbonyl]-10,11-dihydro-5H-pyrrolo[2,1-c][1,4]benzodiazepine-3-carboxylic acid (2,3-dihydroxy-propyl)-methyl-amide] is 3.1-fold lower in IC50: 633 nM for the first, 205 nM for the second. The second is the more potent here.

`Cc1cc(C(=O)N2Cc3ccc(C(=O)N(C)C[C@@H]4OC(=O)O[C@H]4[C@H](O)[C@H]4COC(=O)O4)n3Cc3ccccc32)ccc1-c1ccccc1C(F)(F)F` [Example 12, N-[((4S,5S)-5-{(R)-Hydroxy[(4R)-2-oxo-1,3-dioxolan-4-yl]methyl}-2-oxo-1,3-dioxolan-4-yl)methyl]-N-methyl-10-{[2-methyl-2′-(trifluoromethyl)[1,1′-biphenyl]-4-yl]carbonyl}-10,11-dihydro-5H-pyrrolo[2,1-c]benzodiazepine-3-carboxamide] and `Cc1cc(C(=O)N2Cc3ccc(C(=O)N(CCO)CCO)n3Cc3ccccc32)ccc1-c1ccccc1C(F)(F)F` [Example 1, 10-[(2-Methyl-2′-trifluoromethyl-[1,1′-biphenyl]-4-yl)carbonyl]-10,11-dihydro-5H-pyrrolo[2,1-c][1,4]benzodiazepine-3-carboxylic acid bis-(2-hydroxy-ethyl)-amide] are within 1.5-fold of each other in IC50: 763 nM for the first, 610 nM for the second.

Going from `COC[C@H](O)CN1CCN(C(=O)c2ccc3n2Cc2ccccc2N(C(=O)c2ccc(-c4ccccc4C(F)(F)F)c(C)c2)C3)CC1` [Example 8, (2R)-1-Methoxy-3-{4-[(10-{[2-methyl-2′-trifluoromethyl-[1,1′-biphenyl]-4-yl]carbonyl}-10,11-dihydro-5H-pyrrolo[2,1-c][1,4]benzodiazepin-3-yl)carbonyl]piperazin-1-yl}propan-2-ol] to `COC[C@@H](O)CN1CCN(C(=O)c2ccc3n2Cc2ccccc2N(C(=O)c2ccc(-c4ccccc4C(F)(F)F)c(C)c2)C3)CC1` [Example 9, [3-({4-[(2S)-2-Hydroxy-3-methoxypropyl]-1-piperazinyl}carbonyl)-5H-pyrrolo[2,1-c][1,4]benzodiazepin-10(11H)-yl][2-methyl-2′-trifluoromethyl-[1,1′-biphenyl]-4-yl]methanone], the IC50 rises from 769 nM to 1230 nM (1.6-fold).

For `COc1cc(-c2ccccc2C(F)(F)F)c(Cl)cc1C(=O)N1Cc2ccc(C(=O)N(C)C[C@H](O)[C@@H](O)[C@H](O)[C@H](O)CO)n2Cc2ccccc21` [Example 20, 10-{[6-Chloro-3-methoxy-2′-trifluoromethyl-[1,1′-biphenyl]-4-yl]carbonyl}-N-methyl-N-[(2S,3R,4R,5R)-2,3,4,5,6-pentahydroxyhexyl]-10,11-dihydro-5H-pyrrolo[2,1-c][1,4]benzodiazepine-3-carboxamide], the IC50 was 227 nM.

Test system: not given
Experiment: not given
Conditions: not given

First: Cc1cc(C(=O)N2Cc3ccc(C(=O)N(C)CC(O)CO)n3Cc3ccccc32)ccc1-c1ccccc1C(F)(F)F (stereo not shown) [Example 2, 10-[(2-Methyl-2′-trifluoromethyl-[1,1′-biphenyl]-4-yl)carbonyl]-10,11-dihydro-5H-pyrrolo[2,1-c][1,4]benzodiazepine-3-carboxylic acid (2,3-dihydroxy-propyl)-methyl-amide]
Second: COc1cc2c(cc1OC)N(C(=O)c1ccc(-c3ccccc3C(F)(F)F)c(C)c1)Cc1ccc(C(=O)N(CCO)CCO)n1C2 [Example 19, N,N-Bis(2-Hydroxyethyl)-7,8-dimethoxy-10-{[2-methyl-2′-trifluoromethyl-[1,1′-biphenyl]-4-yl]carbonyl}-10,11-dihydro-5H-pyrrolo[2,1-c][1,4]benzodiazepine-3-carboxamide]
The melting point of the first is higher: 169 to 172 °C for the first, 130 to 132 °C for the second.
